Measured values as given in ChEMBL document CHEMBL1687809, “Novel apramycin resistance gene apmA in bovine and porcine methicillin-resistant Staphylococcus aureus ST398 isolates” (2011).
≈ marks a conversion by molar mass, not a printed value.

How the values were obtained:
Format in all cases: functional
Staphylococcus aureus [1] = test: Antimicrobial activity against methicillin-resistant Staphylococcus aureus ST398 isolate 11 containing apmA, erm(B), tet(L), tet(M), tet(K), dfrK, aadD, mecA, blaZ resistance genes by CLSI M31-A3 method
Staphylococcus aureus [2] = test: Antimicrobial activity against Staphylococcus aureus RN4220 by CLSI M31-A3 method
Staphylococcus aureus [3] = test: Antimicrobial activity against Staphylococcus aureus RN4220 carrying pAFS11-apmA, erm(B), tet(L), dfrK, aadD resistance genes by CLSI M31-A3 method

| Molecule | MIC (Staphylococcus aureus [1]) [µg/mL] | MIC (Staphylococcus aureus [2]) [µg/mL] | MIC (Staphylococcus aureus [3]) [µg/mL] |
| --- | --- | --- | --- |
| CCC[C@@H]1C[C@@H](C(=O)N[C@@H]([C@H]2O[C@H](SC)[C@H](O)[C@@H](O)[C@H]2O)[C@H](C)Cl)N(C)C1 [CLINDAMYCIN] | ≥ 128 | ≤ 0.12 | ≥ 128 |
| CN(C)[C@@H]1C(O)=C(C(N)=O)C(=O)[C@@]2(O)C(O)=C3C(=O)c4c(O)cccc4[C@@](C)(O)[C@H]3C[C@@H]12 [TETRACYCLINE] | 64 (≈ 144 µM) | 0.12 (≈ 0.27 µM) | 32 (≈ 72 µM) |
| NC[C@@H]1O[C@H](O[C@H]2[C@@H](O)[C@H](O[C@@H]3[C@@H](O)[C@H](N)C[C@H](N)[C@H]3O[C@H]3O[C@H](CN)[C@@H](O)[C@H](O)[C@H]3N)O[C@@H]2CO)[C@H](N)[C@@H](O)[C@@H]1O [FRAMYCETIN] | 128 (≈ 208 µM) | ≤ 1 | 32 (≈ 52.1 µM) |
| COc1cc(Cc2cnc(N)nc2N)cc(OC)c1OC [TRIMETHOPRIM] | ≥ 256 | 0.5 (≈ 1.72 µM) | ≥ 256 |
| Cc1onc(-c2ccccc2)c1C(=O)N[C@@H]1C(=O)N2[C@@H]1SC(C)(C)[C@@H]2C(=O)O [OXACILLIN] | 16 (≈ 39.9 µM) | 0.12 (≈ 0.299 µM) | 0.12 (≈ 0.299 µM) |
| NC[C@H]1O[C@H](O[C@H]2[C@H](O)[C@@H](O[C@H]3O[C@H](CO)[C@@H](O)[C@H](N)[C@H]3O)[C@H](N)C[C@@H]2N)[C@H](O)[C@@H](O)[C@@H]1O [KANAMYCIN] | ≥ 128 | 4 (≈ 8.26 µM) | 64 (≈ 132 µM) |
| CN[C@@H]1[C@@H](O[C@H]2O[C@H](CO)[C@@H](N)[C@H](O)[C@H]2O)OC2C[C@@H](N)[C@@H](O[C@H]3[C@H](O)[C@@H](O)[C@H](N)C[C@@H]3N)OC2[C@@H]1O (some centres not stated) [APRAMYCIN] | ≥ 128 | 1 (≈ 1.85 µM) | ≥ 128 |
| CC[C@H]1OC(=O)[C@H](C)[C@@H](O[C@H]2C[C@@](C)(OC)[C@@H](O)[C@H](C)O2)[C@H](C)[C@@H](O[C@@H]2O[C@H](C)C[C@H](N(C)C)[C@H]2O)[C@](C)(O)C[C@@H](C)C(=O)[C@H](C)[C@@H](O)[C@]1(C)O [ERYTHROMYCIN] | ≥ 64 | 0.12 (≈ 0.164 µM) | ≥ 64 |
| GENTAMICIN | 8 | 0.25 | 8 |
